Experiments:
barnyard grass [1] = experiment: Test Example 3: herbicidal effect by foliage application, Wagner pot (Table 18, symbol H); type: in vivo, barnyard grass (Echinochloa crus-galli); settings: 320 g/ha
Outline: (§1)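 Plants were sown in alluvial soil held under 0.1–0.5 cm standing water and grown 14 days in a greenhouse at 25–30 °C. An emulsifiable formulation, water-diluted to the set dose, was then sprayed onto the foliage, and effects were scored three weeks later using previously defined criteria.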

barnyard grass [2] = experiment: Test Example 4: herbicidal effect by soil treatment (Table 19, symbol H); type: in vivo, barnyard grass (Echinochloa crus-galli); settings: for H: barnyard grass, herbicidal effect rating: AAH 320 g/ha
Outline: (§2)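 Emulsion of test compound, water-diluted to predetermined amount, sprayed on soil after sowing (seed depth ~1.5 cm, sterilized diluvial soil). Greenhouse, 25–30° C. Effect graded at three weeks post-spray.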

persian speedwell [3] = experiment: Test Example 4: herbicidal effect by soil treatment (Table 19, symbol R); type: in vivo, Persian speedwell (Veronica persica); settings: for R: persian speedwell, herbicidal effect rating: AAH 320 g/ha
Outline: as §2

persian speedwell [4] = experiment: Test Example 5: herbicidal effect by foliage application, plastic box (Table 20, symbol R); type: in vivo, Persian speedwell (Veronica persica); settings: foliage application, AAH 320 g/ha, three weeks after application
Outline: (§3)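 Post-emergence foliar test in sterilized diluvial soil. Compound applied as water-diluted emulsion at a predetermined rate to 14-day-old plants; evaluation at three weeks.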

chickweed = experiment: Test Example 4: herbicidal effect by soil treatment (Table 19, symbol P); type: in vivo, common chickweed (Stellaria media); settings: for P: chickweed, herbicidal effect rating: AAH 320 g/ha
Outline: as §2

oval-leafed pondweed = experiment: Test Example 1: herbicidal activity, application before weed generation under submerged conditions (Table 16, symbol C); type: in vivo, oval-leafed pondweed (Monochoria vaginalis); settings: 320 g/ha applied herbicide
Outline: (§4)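 Alluvial soil was flooded to 4 cm depth, weed seeds were sown mixed and 2.5-leaf rice seedlings were transplanted. On sowing day, the compound's emulsion, diluted in water to a set dose, was applied to the water surface. Plants grew at 25–30 °C and were scored 0–5 after three weeks.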

southern crabgrass = experiment: Test Example 5: herbicidal effect by foliage application, plastic box (Table 20, symbol F); type: in vivo, southern crabgrass (Digitaria ciliaris); settings: foliage application, AAH 320 g/ha, three weeks after application
Outline: as §3

rice flat sedge = experiment: Test Example 3: herbicidal effect by foliage application, Wagner pot (Table 18, symbol E); type: in vivo, rice flat sedge (Cyperus iria); settings: 320 g/ha
Outline: as §1

barnyard grass [5] = experiment: Test Example 5: herbicidal effect by foliage application, plastic box (Table 20, symbol H); type: in vivo, barnyard grass (Echinochloa crus-galli); settings: foliage application, AAH 320 g/ha, three weeks after application
Outline: as §3

green foxtail = experiment: Test Example 4: herbicidal effect by soil treatment (Table 19, symbol G); type: in vivo, green foxtail (Setaria viridis); settings: for G: green foxtail, herbicidal effect rating: AAH 320 g/ha
Outline: as §2

late watergrass = experiment: Test Example 1: herbicidal activity, application before weed generation under submerged conditions (Table 16, symbol A); type: in vivo, late watergrass (Echinochloa oryzicola); settings: 320 g/ha applied herbicide
Outline: as §4

blackgrass = experiment: Test Example 5: herbicidal effect by foliage application, plastic box (Table 20, symbol J); type: in vivo, blackgrass (Alopecurus myosuroides); settings: foliage application, AAH 320 g/ha, three weeks after application
Outline: as §3

Japanese bulrush = experiment: Test Example 2: herbicidal activity, application during weed generation under submerged conditions (Table 17, symbol B); type: in vivo, Japanese bulrush (Schoenoplectus juncoides); settings: AAH 320 g/ha; application during weed generation, submerged conditions
Outline: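 Herbicide emulsion, diluted with water to the chosen amount, is applied onto 4 cm floodwater over alluvial soil where the weeds were co-sown and raised at 25–30° C. Application timing: 1–2 leaves. Assessment: three weeks afterwards.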

redroot pigweed = experiment: Test Example 4: herbicidal effect by soil treatment (Table 19, symbol N); type: in vivo, redroot pigweed (Amaranthus retroflexus); settings: for N: redroot pigweed, herbicidal effect rating: AAH 320 g/ha
Outline: as §2

velvetleaf = experiment: Test Example 4: herbicidal effect by soil treatment (Table 19, symbol M); type: in vivo, velvetleaf (Abutilon theophrasti); settings: for M: velvetleaf, herbicidal effect rating: AAH 320 g/ha
Outline: as §2

wild oat = experiment: Test Example 5: herbicidal effect by foliage application, plastic box (Table 20, symbol I); type: in vivo, wild oat (Avena fatua); settings: foliage application, AAH 320 g/ha, three weeks after application
Outline: as §3

[6] = amount of applied herbicide 320 g/ha

Compound | herbicidal effect on H (barnyard grass), rating 0-5 (barnyard grass [1]) | R: persian speedwell, herbicidal effect (persian speedwell [4]) | Herbicidal effect on C: oval-leafed pondweed (grade 0-5) (oval-leafed pondweed) | F: southern crabgrass, herbicidal effect (southern crabgrass) | herbicidal effect on E (rice flat sedge), rating 0-5 (rice flat sedge) | H: barnyard grass, herbicidal effect (barnyard grass [5]) | Herbicidal effect on A: late watergrass (grade 0-5) (late watergrass) | J: blackgrass, herbicidal effect (blackgrass) | herbicidal effect rating, B: Japanese bulrush (Japanese bulrush) | I: wild oat, herbicidal effect (wild oat) | H: barnyard grass, herbicidal effect rating (barnyard grass [2]) | R: persian speedwell, herbicidal effect rating (persian speedwell [3]) | P: chickweed, herbicidal effect rating (chickweed) | G: green foxtail, herbicidal effect rating (green foxtail) | N: redroot pigweed, herbicidal effect rating (redroot pigweed) | M: velvetleaf, herbicidal effect rating (velvetleaf) | also measured
CCCC(=O)Oc1c(C)nn(C)c(=O)c1-c1c(-c2ccc3c(c2)CCO3)sc2ccccc12 [1-102] | 4 (Herbicidal rate of 70% or more and less than 90%) | 5 (Herbicidal rate of 90% or more (almost completely withered)) | 4 (Herbicidal rate of 70% or more and less than 90%) | 4 (Herbicidal rate of 70% or more and less than 90%) | 5 (Herbicidal rate of 90% or more (almost completely withered)) | 3 (Herbicidal rate of 40% or more and less than 70%) | 4 (Herbicidal rate of 70% or more and less than 90%) | 0 (Herbicidal rate of 5% or less (almost no effect)) | 5 (Herbicidal rate of 90% or more (almost completely withered)) | 1 (Herbicidal rate of 5% or more and less than 20%) |  |  |  |  |  |  | herbicidal effect rating, H: barnyard grass (barnyard grass [2]; [6]): 3 (Herbicidal rate of 40% or more and less than 70%); herbicidal effect rating, R: persian speedwell (persian speedwell [3]; [6]): 5 (Herbicidal rate of 90% or more (almost completely withered)); herbicidal effect rating, P: chickweed (chickweed; [6]): 5 (Herbicidal rate of 90% or more (almost completely withered)); herbicidal effect rating, G: green foxtail (green foxtail; [6]): 5 (Herbicidal rate of 90% or more (almost completely withered)); herbicidal effect rating, N: redroot pigweed (redroot pigweed; [6]): 4 (Herbicidal rate of 70% or more and less than 90%); herbicidal effect rating, M: velvetleaf (velvetleaf; [6]): 1 (Herbicidal rate of 5% or more and less than 20%)
CCCC(=O)Oc1c(C)nn(C)c(=O)c1-c1c(-c2ccc(C(C)C)cc2)sc2ccccc12 [1-126] | 5 (Herbicidal rate of 90% or more (almost completely withered)) | 4 (Herbicidal rate of 70% or more and less than 90%) | 3 (Herbicidal rate of 40% or more and less than 70%) | 1 (Herbicidal rate of 5% or more and less than 20%) | 4 (Herbicidal rate of 70% or more and less than 90%) | 4 (Herbicidal rate of 70% or more and less than 90%) | 3 (Herbicidal rate of 40% or more and less than 70%) | 0 (Herbicidal rate of 5% or less (almost no effect)) | 3 (Herbicidal rate of 40% or more and less than 70%) | 2 (Herbicidal rate of 20% or more and less than 40%) | 0 (Herbicidal rate of 5% or less (almost no effect)) | 3 (Herbicidal rate of 40% or more and less than 70%) | 2 (Herbicidal rate of 20% or more and less than 40%) | 0 (Herbicidal rate of 5% or less (almost no effect)) | 3 (Herbicidal rate of 40% or more and less than 70%) | 0 (Herbicidal rate of 5% or less (almost no effect)) | 
COCc1ccc(-c2sc3ccccc3c2-c2c(O)c(C)nn(C)c2=O)cc1 [1-131] | 5 (Herbicidal rate of 90% or more (almost completely withered)) | 5 (Herbicidal rate of 90% or more (almost completely withered)) | 0 (Herbicidal rate of 5% or less (almost no effect)) | 5 (Herbicidal rate of 90% or more (almost completely withered)) | 5 (Herbicidal rate of 90% or more (almost completely withered)) | 5 (Herbicidal rate of 90% or more (almost completely withered)) | 2 (Herbicidal rate of 20% or more and less than 40%) | 4 (Herbicidal rate of 70% or more and less than 90%) | 1 (Herbicidal rate of 5% or more and less than 20%) | 4 (Herbicidal rate of 70% or more and less than 90%) | 5 (Herbicidal rate of 90% or more (almost completely withered)) | 5 (Herbicidal rate of 90% or more (almost completely withered)) | 5 (Herbicidal rate of 90% or more (almost completely withered)) | 5 (Herbicidal rate of 90% or more (almost completely withered)) | 5 (Herbicidal rate of 90% or more (almost completely withered)) | 5 (Herbicidal rate of 90% or more (almost completely withered)) | 
Cc1nn(C)c(=O)c(-c2c(-c3ccc(OCc4ccccc4)cc3)sc3ccccc23)c1O [1-133] | 5 (Herbicidal rate of 90% or more (almost completely withered)) | 5 (Herbicidal rate of 90% or more (almost completely withered)) | 3 (Herbicidal rate of 40% or more and less than 70%) | 3 (Herbicidal rate of 40% or more and less than 70%) | 5 (Herbicidal rate of 90% or more (almost completely withered)) | 5 (Herbicidal rate of 90% or more (almost completely withered)) | 5 (Herbicidal rate of 90% or more (almost completely withered)) | 1 (Herbicidal rate of 5% or more and less than 20%) | 3 (Herbicidal rate of 40% or more and less than 70%) | 0 (Herbicidal rate of 5% or less (almost no effect)) | 2 (Herbicidal rate of 20% or more and less than 40%) | 5 (Herbicidal rate of 90% or more (almost completely withered)) | 0 (Herbicidal rate of 5% or less (almost no effect)) | 3 (Herbicidal rate of 40% or more and less than 70%) | 5 (Herbicidal rate of 90% or more (almost completely withered)) | 0 (Herbicidal rate of 5% or less (almost no effect)) | 

— patent US20230085307A1, “PYRIDAZINONE COMPOUND AND HERBICIDE” (NISSAN CHEMICAL CORPORATION, priority 2019, published 2023)
